Experimental data taken from US20260125378A2, “Heterocyclic Compounds” (BeOne Medicines I GmbH, priority 2023, published 2026).

Columns and labels:
[1] = biological target: T1, Full length DGKζ (in-house protein M1-V929) (Homo sapiens, UniProt Q13574); experiment: Biochemical DGK IC50 assay (ADP-Glo, lipid micelle substrate), DGKζ; conditions: 1 hour preincubation, 1 hour reaction, room temperature
T1 construct: His (N); TEV site (N); made in house; host or cells: Sf9 insect cells (Bac-to-Bac baculovirus)
In short: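 Enzyme: full-length human DGKζ M1-V929, produced in baculovirus-infected Sf9 cells; substrate DAG/PS micelles. Buffer 50 mM HEPES, 10 mM MgCl2, 0.01 mM CaCl2, 0.1 mM Na3VO4.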

[2] = biological target: T2, Full length DGKα (D21-10BG, SignalChem) (Homo sapiens, UniProt P23743); experiment: Biochemical DGK IC50 assay (ADP-Glo, lipid micelle substrate), DGKα; conditions: 1 hour preincubation, 1 hour reaction, room temperature
T2 construct: Full length DGKα (D21-10BG, SignalChem); purchased SignalChem D21-10BG
In short: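 ADP-Glo luminescence quantified ADP produced after a 1 h room-temperature reaction of full-length DGKα on DAG/PS micelles, in HEPES buffer containing MgCl2, CaCl2, vanadate, BSA and Tween-20. IC50 values derive from activity inhibition over a compound concentration series.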

T2 sequence (P23743 whole entry): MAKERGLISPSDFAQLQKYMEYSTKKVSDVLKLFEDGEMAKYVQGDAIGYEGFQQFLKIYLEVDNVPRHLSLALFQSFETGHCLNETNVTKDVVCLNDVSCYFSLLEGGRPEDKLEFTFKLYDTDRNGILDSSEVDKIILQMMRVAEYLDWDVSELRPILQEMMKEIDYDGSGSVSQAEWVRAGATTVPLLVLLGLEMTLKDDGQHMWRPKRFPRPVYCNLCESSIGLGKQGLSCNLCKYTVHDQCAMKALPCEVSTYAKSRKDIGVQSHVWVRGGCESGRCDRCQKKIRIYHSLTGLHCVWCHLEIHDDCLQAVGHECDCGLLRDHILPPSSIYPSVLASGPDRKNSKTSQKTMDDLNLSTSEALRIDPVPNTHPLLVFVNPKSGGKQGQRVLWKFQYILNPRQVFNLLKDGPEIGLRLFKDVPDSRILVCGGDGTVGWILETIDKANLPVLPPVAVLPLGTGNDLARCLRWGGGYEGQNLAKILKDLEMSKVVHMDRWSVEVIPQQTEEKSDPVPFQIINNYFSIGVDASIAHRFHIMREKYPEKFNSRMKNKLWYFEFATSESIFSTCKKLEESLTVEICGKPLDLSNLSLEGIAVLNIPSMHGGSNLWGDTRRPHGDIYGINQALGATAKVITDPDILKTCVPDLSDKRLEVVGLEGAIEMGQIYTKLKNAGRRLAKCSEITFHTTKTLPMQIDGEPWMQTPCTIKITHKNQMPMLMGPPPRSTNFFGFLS
T1 sequence (Q13574 1-929 isoform Q13574-4): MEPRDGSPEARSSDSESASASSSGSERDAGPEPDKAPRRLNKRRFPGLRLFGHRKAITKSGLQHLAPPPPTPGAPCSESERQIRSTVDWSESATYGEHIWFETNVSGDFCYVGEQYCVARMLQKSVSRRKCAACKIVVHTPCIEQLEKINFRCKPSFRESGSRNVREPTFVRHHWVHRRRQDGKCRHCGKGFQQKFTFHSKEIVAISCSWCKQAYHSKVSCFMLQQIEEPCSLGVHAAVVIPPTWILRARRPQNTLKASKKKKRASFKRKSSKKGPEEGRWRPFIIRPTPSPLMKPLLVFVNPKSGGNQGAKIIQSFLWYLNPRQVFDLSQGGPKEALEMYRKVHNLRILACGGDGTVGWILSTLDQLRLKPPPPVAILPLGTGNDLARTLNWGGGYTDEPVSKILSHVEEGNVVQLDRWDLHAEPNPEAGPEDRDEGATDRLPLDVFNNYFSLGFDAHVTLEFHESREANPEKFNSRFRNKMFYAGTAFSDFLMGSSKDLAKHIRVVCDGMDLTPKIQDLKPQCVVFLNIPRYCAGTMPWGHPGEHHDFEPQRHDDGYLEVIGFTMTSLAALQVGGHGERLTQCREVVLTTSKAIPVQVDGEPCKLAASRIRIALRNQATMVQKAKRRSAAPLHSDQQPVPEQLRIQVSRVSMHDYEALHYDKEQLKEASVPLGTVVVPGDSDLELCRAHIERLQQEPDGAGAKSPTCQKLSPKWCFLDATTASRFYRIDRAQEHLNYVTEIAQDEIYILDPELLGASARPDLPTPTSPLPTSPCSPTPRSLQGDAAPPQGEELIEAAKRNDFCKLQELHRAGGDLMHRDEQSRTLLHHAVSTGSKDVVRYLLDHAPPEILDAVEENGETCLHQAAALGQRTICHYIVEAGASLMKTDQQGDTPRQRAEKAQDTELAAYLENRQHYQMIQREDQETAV

| IC50 [1] | IC50 [2] | Structure (SMILES) |
| --- | --- | --- |
| 45 nM | > 150000 nM | CCn1c(CC#N)nc2c(N3C[C@@H](C)N(C(C)c4ccc5c(n4)OC(C)(C)CO5)C[C@@H]3C)nc(=O)n(C)c21 (stereo partly drawn) [Compound A74, 2-(6-((2S,5R)-4-(1-(3,3-dimethyl-2,3-dihydro-[1,4]dioxino[2,3-b]pyridin-6-yl)ethyl)-2,5-dimethylpiperazin-1-yl)-9-ethyl-3-methyl-2-oxo-3,9-dihydro-2H-purin-8-yl)acetonitrile] |
| 253 nM | > 150000 nM | CCn1c(CC#N)nc2c(N3C[C@@H](C)N(C(C)c4cc5c(cn4)OCC(C)(C)O5)C[C@@H]3C)nc(=O)n(C)c21 (stereo partly drawn) [Compound A75, 2-(6-((2S,5R)-4-(1-(2,2-dimethyl-2,3-dihydro-[1,4]dioxino[2,3-c]pyridin-7-yl)ethyl)-2,5-dimethylpiperazin-1-yl)-9-ethyl-3-methyl-2-oxo-3,9-dihydro-2H-purin-8-yl)acetonitrile] |
| 419 nM | > 150000 nM | CCn1c(CC#N)nc2c(N3C[C@@H](C)N(C(C)c4cnc5c(c4)OC(C)(C)CO5)C[C@@H]3C)nc(=O)n(C)c21 (stereo partly drawn) [Compound A76, 2-(6-((2S,5R)-4-(1-(2,2-dimethyl-2,3-dihydro-[1,4]dioxino[2,3-b]pyridin-7-yl)ethyl)-2,5-dimethylpiperazin-1-yl)-9-ethyl-3-methyl-2-oxo-3,9-dihydro-2H-purin-8-yl)acetonitrile] |
| 7 nM | 102000 nM | CCn1c(CC#N)nc2c(N3C[C@@H](C)N(C(C)c4ccc5c(c4)C(F)(F)CCO5)C[C@@H]3C)nc(=O)n(C)c21 (stereo partly drawn) [Compound A78, 2-(6-((2S,5R)-4-(1-(4,4-difluorochroman-6-yl)ethyl)-2,5-dimethylpiperazin-1-yl)-9-ethyl-3-methyl-2-oxo-3,9-dihydro-2H-purin-8-yl)acetonitrile] |
| 7 nM | > 150000 nM | CCn1c(CC#N)nc2c(N3C[C@@H](C)N(C(C)c4ccc5c(c4)OC(C)(C)CC5=O)C[C@@H]3C)nc(=O)n(C)c21 (stereo partly drawn) [Compound A81, 2-(6-((2S,5R)-4-(1-(2,2-dimethyl-4-oxochroman-7-yl)ethyl)-2,5-dimethylpiperazin-1-yl)-9-ethyl-3-methyl-2-oxo-3,9-dihydro-2H-purin-8-yl)acetonitrile] |
| 201 nM | 9520 nM | CCn1c(CC#N)nc2c(N3C[C@@H](C)N(C(C)c4ccc5c(c4)CN(CC(F)(F)F)C5=O)C[C@@H]3C)nc(=O)n(C)c21 (stereo partly drawn) [Compound A82, 2-(6-((2S,5R)-2,5-dimethyl-4-(1-(1-oxo-2-(2,2,2-trifluoroethyl)isoindolin-5-yl)ethyl)piperazin-1-yl)-9-ethyl-3-methyl-2-oxo-3,9-dihydro-2H-purin-8-yl)acetonitrile] |
| 40 nM | > 150000 nM | CCn1c(CC#N)nc2c(N3C[C@@H](C)N(C(C)c4ccc5c(c4)C(=O)N(C)C5=O)C[C@@H]3C)nc(=O)n(C)c21 (stereo partly drawn) [Compound A83, 2-(6-((2S,5R)-2,5-dimethyl-4-(1-(2-methyl-1,3-dioxoisoindolin-5-yl)ethyl)piperazin-1-yl)-9-ethyl-3-methyl-2-oxo-3,9-dihydro-2H-purin-8-yl)acetonitrile] |
| 232 nM | > 150000 nM | CCn1c(CC#N)nc2c(N3C[C@@H](C)N(C(C)c4ccc5c(c4)C(C)(C)N(C)C5=O)C[C@@H]3C)nc(=O)n(C)c21 (stereo partly drawn) [Compound A84, 2-(6-((2S,5R)-2,5-dimethyl-4-(1-(2,3,3-trimethyl-1-oxoisoindolin-5-yl)ethyl)piperazin-1-yl)-9-ethyl-3-methyl-2-oxo-3,9-dihydro-2H-purin-8-yl)acetonitrile] |
| 67 nM | > 150000 nM | CC(c1ccc2c(c1)OC(C)(C)CO2)N1C[C@H](C)N(c2nc(=O)n(C)c3c2nc(CC#N)n3C2CC2)C[C@H]1C (stereo partly drawn) [Compound A86, 2-(9-cyclopropyl-6-((2S,5R)-4-(1-(3,3-dimethyl-2,3-dihydrobenzo[b][1,4]dioxin-6-yl)ethyl)-2,5-dimethylpiperazin-1-yl)-3-methyl-2-oxo-3,9-dihydro-2H-purin-8-yl)acetonitrile] |
| 2 nM | 21900 nM | CC(c1ccc2c(c1)OC(C)(C)CO2)N1C[C@H](C)N(c2nc(=O)n(C)c3c2nc(CC#N)n3CC(F)F)C[C@H]1C (stereo partly drawn) [Compound A87, 2-(9-(2,2-difluoroethyl)-6-((2S,5R)-4-(1-(3,3-dimethyl-2,3-dihydrobenzo[b][1,4]dioxin-6-yl)ethyl)-2,5-dimethylpiperazin-1-yl)-3-methyl-2-oxo-3,9-dihydro-2H-purin-8-yl)acetonitrile] |
| 4 nM | 111000 nM | CCCn1c(CC#N)nc2c(N3C[C@@H](C)N(C(C)c4ccc5c(c4)OC(C)(C)CO5)C[C@@H]3C)nc(=O)n(C)c21 (stereo partly drawn) [Compound A88, 2-(6-((2S,5R)-4-(1-(3,3-dimethyl-2,3-dihydrobenzo[b][1,4]dioxin-6-yl)ethyl)-2,5-dimethylpiperazin-1-yl)-3-methyl-2-oxo-9-propyl-3,9-dihydro-2H-purin-8-yl)acetonitrile] |
| 334 nM | > 150000 nM | CCn1c(CC#N)nc2c(N3C[C@@H](C)N(C(C)c4ccc5c(n4)OC(C)CO5)C[C@@H]3C)nc(=O)n(C)c21 (stereo partly drawn) [Compound A89, 2-(6-((2S,5R)-2,5-dimethyl-4-(1-(3-methyl-2,3-dihydro-[1,4]dioxino[2,3-b]pyridin-6-yl)ethyl)piperazin-1-yl)-9-ethyl-3-methyl-2-oxo-3,9-dihydro-2H-purin-8-yl)acetonitrile] |
| 213 nM | > 150000 nM | CCn1c(CC#N)nc2c(N3C[C@@H](C)N(C(C)c4ccc5ccc(C)nc5c4)C[C@@H]3C)nc(=O)n(C)c21 (stereo partly drawn) [Compound A90, 2-(6-((2S,5R)-2,5-dimethyl-4-(1-(2-methylquinolin-7-yl)ethyl)piperazin-1-yl)-9-ethyl-3-methyl-2-oxo-3,9-dihydro-2H-purin-8-yl)acetonitrile] |
| 20 nM | > 150000 nM | CCn1c(CC#N)nc2c(N3C[C@@H](C)N(C(C)c4ccc5occ(C)c(=O)c5c4)C[C@@H]3C)nc(=O)n(C)c21 (stereo partly drawn) [Compound A91, 2-(6-((2S,5R)-2,5-dimethyl-4-(1-(3-methyl-4-oxo-4H-chromen-6-yl)ethyl)piperazin-1-yl)-9-ethyl-3-methyl-2-oxo-3,9-dihydro-2H-purin-8-yl)acetonitrile] |
| 123 nM | > 150000 nM | CCn1c(CC#N)nc2c(N3C[C@@H](C)N(C(C)c4ccc5ccn(C)c(=O)c5c4)C[C@@H]3C)nc(=O)n(C)c21 (stereo partly drawn) [Compound A92, 2-(6-((2S,5R)-2,5-dimethyl-4-(1-(2-methyl-1-oxo-1,2-dihydroisoquinolin-7-yl)ethyl)piperazin-1-yl)-9-ethyl-3-methyl-2-oxo-3,9-dihydro-2H-purin-8-yl)acetonitrile] |
| 414 nM | > 150000 nM | CCn1c(CC#N)nc2c(N3C[C@@H](C)N(C(C)c4ccc5c(c4)C(=O)N(C)CC5)C[C@@H]3C)nc(=O)n(C)c21 (stereo partly drawn) [Compound A93, 2-(6-((2S,5R)-2,5-dimethyl-4-(1-(2-methyl-1-oxo-1,2,3,4-tetrahydroisoquinolin-7-yl)ethyl)piperazin-1-yl)-9-ethyl-3-methyl-2-oxo-3,9-dihydro-2H-purin-8-yl)acetonitrile] |
| 63 nM | 49600 nM | CCn1c(CC#N)nc2c(N3C[C@@H](C)N(C(C)c4ccc5sc(C(C)C)nc5c4)C[C@@H]3C)nc(=O)n(C)c21 (stereo partly drawn) [Compound A96, 2-(9-ethyl-6-((2S,5R)-4-(1-(2-isopropylbenzo[d]thiazol-5-yl)ethyl)-2,5-dimethylpiperazin-1-yl)-3-methyl-2-oxo-3,9-dihydro-2H-purin-8-yl)acetonitrile] |
| 11 nM | 51100 nM | CCn1c(CC#N)nc2c(N3C[C@@H](C)N(C(C)c4ccc5c(c4)OC(C)(C)C5)C[C@@H]3C)nc(=O)n(C)c21 (stereo partly drawn) [Compound A97, 2-(6-((2S,5R)-4-(1-(2,2-dimethyl-2,3-dihydrobenzofuran-6-yl)ethyl)-2,5-dimethylpiperazin-1-yl)-9-ethyl-3-methyl-2-oxo-3,9-dihydro-2H-purin-8-yl)acetonitrile] |
| 5 nM | 11600 nM | CC(c1ccc2c(c1)OC(C)(C)O2)N1C[C@H](C)N(c2nc(=O)n(C)c3c2nc(CC#N)n3C)C[C@H]1C (stereo partly drawn) [Compound A98, 2-(6-((2S,5R)-4-(1-(2,2-dimethylbenzo[d][1,3]dioxol-5-yl)ethyl)-2,5-dimethylpiperazin-1-yl)-3,9-dimethyl-2-oxo-3,9-dihydro-2H-purin-8-yl)acetonitrile] |
| 128 nM | 55600 nM | CCn1c(CC#N)nc2c(N3C[C@@H](C)N(C(C)c4ccc5c(c4)OC(F)(F)O5)C[C@@H]3C)nc(=O)n(C)c21 (stereo partly drawn) [Compound A99, 2-(6-((2S,5R)-4-(1-(2,2-difluorobenzo[d][1,3]dioxol-5-yl)ethyl)-2,5-dimethylpiperazin-1-yl)-9-ethyl-3-methyl-2-oxo-3,9-dihydro-2H-purin-8-yl)acetonitrile] |
| 4110 nM | > 150000 nM | CCn1c(CC#N)nc2c(N3C[C@@H](C)N(C(C)c4ccc5c(c4)C(=O)N(C)C5)C[C@@H]3C)nc(=O)n(C)c21 (stereo partly drawn) [Compound A100, 2-(6-((2S,5R)-2,5-dimethyl-4-(1-(2-methyl-3-oxoisoindolin-5-yl)ethyl)piperazin-1-yl)-9-ethyl-3-methyl-2-oxo-3,9-dihydro-2H-purin-8-yl)acetonitrile] |
| 4230 nM | > 150000 nM | CCn1c(CC#N)nc2c(N3C[C@@H](C)N(C(C)c4ccc5c(c4)CN(C)C5=O)C[C@@H]3C)nc(=O)n(C)c21 (stereo partly drawn) [Compound A101, 2-(6-((2S,5R)-2,5-dimethyl-4-(1-(2-methyl-1-oxoisoindolin-5-yl)ethyl)piperazin-1-yl)-9-ethyl-3-methyl-2-oxo-3,9-dihydro-2H-purin-8-yl)acetonitrile] |
